Experimental data reported in US20230406859A1, “METHOTREXATE ANALOGS AND METHODS OF USE” (The United States of America, as represented by the …, priority 2020, published 2023).

Experiments:
[1] = biological target: T1, human DHFR-HiBiT fusion protein (Homo sapiens, UniProt P00374); assay: DHFR-HiBiT assay (high-throughput DHFR abundance) in HBL1 cells; assay type: cell-based; conditions: for Dmax: % change in untreated cellular DHFR level (control), negative = degradation, positive = stabilization, HBL1, 24 h, read-out: efficacy (%)
T1 construct: expressed in transfected cells; host or cells: HBL1 cells retrovirally infected with pBMN-Ires-Lyt-2 carrying DHFR-HiBiT
T1 sequence (P00374 with tags, fused parts or gaps): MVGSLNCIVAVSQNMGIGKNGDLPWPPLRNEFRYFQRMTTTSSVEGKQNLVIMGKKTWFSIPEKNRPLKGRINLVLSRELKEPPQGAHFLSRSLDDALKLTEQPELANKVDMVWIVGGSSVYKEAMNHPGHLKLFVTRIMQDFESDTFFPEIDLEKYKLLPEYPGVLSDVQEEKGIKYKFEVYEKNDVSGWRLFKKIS
Description: The human DHFR-HiBiT construct was synthetized (Bio Basic) and cloned into the retroviral vector pBMN-Ires-Lyt-2 (provided by G. Nolan, Stanford University, Stanford, CA) which expresses the coding region of mouse CD8a (Lyt-2) using the restriction sites BamHI/XhoI. All constructs were sequenced to validate authenticity. Infected cells were positively selected based on murine CD8a expression using magnetic beads (Miltenyi Biotech).
Cell culture: Human embryonic kidney HEK293T cells were maintained in DMEM (Gibco) supplemented with 10% fetal bovine serum (Hyclone), 2 mmol/L 1-glutamine, HEPES (Gibco) and 100 U/mL penicillin/streptomycin (Invitrogen). The lymphoma cell line HBL1 were maintained in RPMI (Life Technology) supplemented with 5% fetal bovine serum (Hyclone), 2 mmol/L L-glutamine, HEPES (Gibco) and 100 U/mL penicillin/streptomycin (Invitrogen).
Transfection and retroviral infections: Transfections were performed using Lipofectamine 2000 (Invitrogen) according to the manufacturer's protocol. For retroviral infections, viruses were produced in HEK293T cells and used to infect HBL1 cell line. […] Supernatants containing the retrovirus were collected and filtered at 48- and 72-hours post-transfection. HBL1 cells were centrifuged and then resuspended with the retroviral supernatant with 8 μg/ml of polybrene. The cells were spin-infected twice on consecutive days at 2,500 rpm, at RT, for 90 minutes.
Lytic HiBiT Detection: Cells were plated in solid white 1536-well tissue culture plates (Greiner), at the concentration of 2000 cells/well. After treatment, an equal volume of Nano-Glo HiBiT Lytic Reagent (Promega) containing the substrate furimazine and Large BiT (LgBiT) was added to the cells according to the manufacturer's protocol. Cells were incubated for 10 min at room temperature, and luminescence was measured using a Perkin Elmer ViewLux microplate imager with 30 seconds of exposure time.

HBL1 cell line = assay: CellTiter-Glo cell viability (cytotox), HBL1 cell line, 72 hours; assay type: cell-based; conditions: HBL1 cell line, CellTiter-Glo; unit inferred
Description: CellTiter-Glo viability assays: Five μL of cells (2500 cells) from the 12-well plate culture were plated into white 1536-well plates (Greiner, Monroe, NC, 789173-F) in 6 replicates. CellTiter-Glo Luminescent Cell Viability Assay (CTG) (Promega, G7572), 2.5 μL/well reagent was added with a BioRAPTR FRD (Beckman Coulter, Sykesville, MD), plates were incubated in the dark at ambient temperature for 10 min, and luminescence measured with a ViewLux 1430 Ultra HTS (Perkin Elmer, Waltham, MA).

Row | SMILES | Dmax [1] [%] | DC50 ([1]; HBL1 cells expressing DHFR-HiBiT, 24 h, degradation or stabilization potency, average of N = 2-5, read-out: Ave EC50) [µM] | IC50 (HBL1 cell line) [µM]
1 | COC(=O)[C@H](CCC(=O)NCCCCCCCCNc1cccc2c1C(=O)N(C1CCC(=O)NC1=O)C2=O)NC(=O)c1ccc(N(C)Cc2cnc3nc(N)nc(N)c3n2)cc1 (stereo partly shown) [NCGC00687472] | 62.9 | – | 12.2
2 | CN(Cc1cnc2nc(N)nc(N)c2n1)c1ccc(C(=O)N[C@@H](CCC(=O)NCCOCCOCCNc2cccc3c2C(=O)N(C2CCC(=O)NC2=O)C3=O)C(=O)O)cc1 (stereo partly shown) [NCGC00687555] | 56.9 | – | 3.93
3 | COC(=O)[C@H](CCC(=O)NCCCCCCCCNc1cccc2c1C(=O)N(C1CCC(=O)NC1=O)C2=O)NC(=O)CC[C@H](NC(=O)CC[C@H](NC(=O)c1ccc(N(C)Cc2cnc3nc(N)nc(N)c3n2)cc1)C(=O)O)C(=O)OC (stereo partly drawn) [NCGC00687569, N2-(4-(((2,4-diaminopteridin-6-yl)methyl)(methyl)amino)benzoyl)-N5-((2S)-5-(((2S)-5-((8-((2-(2,6-dioxopiperidin-3-yl)-1,3-dioxoisoindolin-4-yl)amino)octyl)amino)-1-methoxy-1,5-dioxopentan-2-yl)amino)-1-methoxy-1,5-dioxopentan-2-yl)-L-glutamine] | 53.9 | – | 21.5
4 | COC(=O)[C@H](CCC(=O)NCCCCCCCCNc1cccc2c1C(=O)N(C1CCC(=O)NC1=O)C2=O)NC(=O)CC[C@H](NC(=O)c1ccc(N(C)Cc2cnc3nc(N)nc(N)c3n2)cc1)C(=O)O (stereo partly shown) [NCGC00687576] | 62.3 | – | 17
5 | CN(Cc1cnc2nc(N)nc(N)c2n1)c1ccc(C(=O)N[C@@H](CCC(=O)O)C(=O)NCCOCCOCCOCCNC(=O)COc2cccc3c2C(=O)N(C2CCC(=O)NC2=O)C3=O)cc1 (stereo partly drawn) [NCGC00690069, (17S)-17-(4-(((2,4-diaminopteridin-6-yl)methyl)(methyl)amino)benzamido)-1-((2-(2,6-dioxopiperidin-3-yl)-1,3-dioxoisoindolin-4-yl)oxy)-2,16-dioxo-6,9,12-trioxa-3,15-diazaicosan-20-oic acid] | – | – | 35.8
6 | CN(Cc1cnc2nc(N)nc(N)c2n1)c1ccc(C(=O)NC(CCC(=O)O)C(=O)NCCCCCCCCNc2cccc3c2C(=O)N(C2CCC(=O)NC2=O)C3=O)cc1 (stereo not shown) [NCGC00690075, 4-(4-(((2,4-diaminopteridin-6-yl)methyl)(methyl)amino)benzamido)-5-((8-((2-(2,6-dioxopiperidin-3-yl)-1,3-dioxoisoindolin-4-yl)amino)octyl)amino)-5-oxopentanoic acid] | – | – | 70
7 | Nc1nc(N)c2nc(CN(CCCCCCNC(=O)COc3cccc4c3C(=O)N(C3CCC(=O)NC3=O)C4=O)c3ccc(C(=O)N[C@@H](CCC(=O)O)C(=O)O)cc3)cnc2n1 (stereo partly shown) [NCGC00690396, (4-(((2,4-diaminopteridin-6-yl)methyl)(6-(2-((2-(2,6-dioxopiperidin-3-yl)-1,3-dioxoisoindolin-4-yl)oxy)acetamido)hexyl)amino)benzoyl)glutamic acid] | – | – | 26.6
8 | CN(Cc1cnc2nc(N)nc(N)c2n1)c1ccc(C(=O)N[C@@H](CCC(=O)O)C(=O)NCCOCCOCCNc2cccc3c2C(=O)N(C2CCC(=O)NC2=O)C3=O)cc1 (stereo partly drawn) [NCGC00690407, (4S)-4-(4-(((2,4-diaminopteridin-6-yl)methyl)(methyl)amino)benzamido)-5-((2-(2-(2-((2-(2,6-dioxopiperidin-3-yl)-1,3-dioxoisoindolin-4-yl)amino)ethoxy)ethoxy)ethyl)amino)-5-oxopentanoic acid] | – | – | 32.9
9 | CN(Cc1cnc2nc(N)nc(N)c2n1)c1ccc(C(=O)N[C@@H](CCC(=O)O)C(=O)NCCCNc2cccc3c2C(=O)N(C2CCC(=O)NC2=O)C3=O)cc1 (stereo partly drawn) [NCGC00690412, (4S)-4-(4-(((2,4-diaminopteridin-6-yl)methyl)(methyl)amino)benzamido)-5-((3-((2-(2,6-dioxopiperidin-3-yl)-1,3-dioxoisoindolin-4-yl)amino)propyl)amino)-5-oxopentanoic acid] | – | – | 38.6

Further lines, with some results ahead:

Row | Dmax [1] [%] | DC50 ([1]; HBL1 cells expressing DHFR-HiBiT, 24 h, degradation or stabilization potency, average of N = 2-5, read-out: Ave EC50) [µM] | SMILES | IC50 (HBL1 cell line) [µM]
10 | 48.1 | – | COC(=O)[C@H](CCC(=O)NCCCCCCCCNc1cccc2c1C(=O)N(C1CCC(=O)NC1=O)C2=O)NC(=O)CC[C@H](NC(=O)CC[C@H](NC(=O)CC[C@H](NC(=O)c1ccc(N(C)Cc2cnc3nc(N)nc(N)c3n2)cc1)C(=O)O)C(=O)OC)C(=O)OC (stereo partly drawn) [NCGC00687807, (2S,7S,12S,17S)-2-(4-(((2,4-diaminopteridin-6-yl)methyl)(methyl)amino)benzamido)-29-((2-(2,6-dioxopiperidin-3-yl)-1,3-dioxoisoindolin-4-yl)amino)-7,12,17-tris(methoxycarbonyl)-5,10,15,20-tetraoxo-6,11,16,21-tetraazanonacosanoic acid] | 20.8
11 | 40.5 | – | COC(=O)[C@H](CCC(=O)NCCCCCCCCNc1cccc2c1C(=O)N(C1CCC(=O)NC1=O)C2=O)NC(=O)CC[C@H](NC(=O)CC[C@H](NC(=O)CC[C@H](NC(=O)CC[C@H](NC(=O)c1ccc(N(C)Cc2cnc3nc(N)nc(N)c3n2)cc1)C(=O)O)C(=O)OC)C(=O)OC)C(=O)OC (stereo partly drawn) [NCGC00687811, (2S,7S,12S,17S,22S)-2-(4-(((2,4-diaminopteridin-6-yl)methyl)(methyl)amino)benzamido)-34-((2-(2,6-dioxopiperidin-3-yl)-1,3-dioxoisoindolin-4-yl)amino)-7,12,17,22-tetrakis(methoxycarbonyl)-5,10,15,20,25-pentaoxo-6,11,16,21,26-pentaazatetratriacontanoic acid] | 22.4
12 | -93.2 | 3 | CN1C(=O)CCC(N2C(=O)c3cccc(NCCCCCCCCNC(=O)CC[C@H](NC(=O)c4ccc(N(C)Cc5cnc6nc(N)nc(N)c6n5)cc4)C(=O)O)c3C2=O)C1=O (stereo partly drawn) [NCGC00687847, N2-(4-(((2,4-diaminopteridin-6-yl)methyl)(methyl)amino)benzoyl)-N5-(8-((2-(1-methyl-2,6-dioxopiperidin-3-yl)-1,3-dioxoisoindolin-4-yl)amino)octyl)-L-glutamine] | 25.4
13 | 32.8 | – | Nc1nc(N)c2nc(CN(CCCCCCNC(=O)CCOCCOCCOCCOCCOc3cccc4c3C(=O)N(C3CCC(=O)NC3=O)C4=O)c3ccc(C(=O)N[C@@H](CCC(=O)O)C(=O)O)cc3)cnc2n1 (stereo partly shown) [NCGC00690395, (4-(((2,4-diaminopteridin-6-yl)methyl)(1-((2-(2,6-dioxopiperidin-3-yl)-1,3-dioxoisoindolin-4-yl)oxy)-15-oxo-3,6,9,12-tetraoxa-16-azadocosan-22-yl)amino)benzoyl)glutamic acid] | 33.4
14 | 64.1 | – | Cc1ncsc1-c1ccc(CNC(=O)[C@@H]2C[C@@H](O)CN2C(=O)C(NC(=O)CCOCCOCCC(=O)NCCCCCCN(Cc2cnc3nc(N)nc(N)c3n2)c2ccc(C(=O)N[C@@H](CCC(=O)O)C(=O)O)cc2)C(C)(C)C)cc1 (stereo partly drawn) [NCGC00690397, (4-(((2,4-diaminopteridin-6-yl)methyl)(3-((2S,4R)-4-hydroxy-2-((4-(4-methylthiazol-5-yl)benzyl)carbamoyl)pyrrolidine-1-carbonyl)-2,2-dimethyl-5,14-dioxo-8,11-dioxa-4,15-diazahenicosan-21-yl)amino)benzoyl)glutamic acid] | 28.7
15 | 26 | – | Cc1ncsc1-c1ccc(CNC(=O)[C@@H]2C[C@@H](O)CN2C(=O)C(NC(=O)CCOCCOCCOCCOCCC(=O)NCCCCCCN(Cc2cnc3nc(N)nc(N)c3n2)c2ccc(C(=O)N[C@@H](CCC(=O)O)C(=O)O)cc2)C(C)(C)C)cc1 (stereo partly drawn) [NCGC00690398, (4-(((2,4-diaminopteridin-6-yl)methyl)(3-((2S,4R)-4-hydroxy-2-((4-(4-methylthiazol-5-yl)benzyl)carbamoyl)pyrrolidine-1-carbonyl)-2,2-dimethyl-5,20-dioxo-8,11,14,17-tetraoxa-4,21-diazaheptacosan-27-yl)amino)benzoyl)glutamic acid] | 36.7
16 | 27.6 | – | COC(=O)[C@H](CCC(=O)NCCOCCOCCOCCNC(=O)COc1cccc2c1C(=O)N(C1CCC(=O)NC1=O)C2=O)NC(=O)c1ccc(N(C)Cc2cnc3nc(N)nc(N)c3n2)cc1 (stereo partly drawn) [NCGC00842394, Methyl (19S)-19-(4-(((2,4-diaminopteridin-6-yl)methyl)(methyl)amino)benzamido)-1-((2-(2,6-dioxopiperidin-3-yl)-1,3-dioxoisoindolin-4-yl)oxy)-2,16-dioxo-6,9,12-trioxa-3,15-diazaicosan-20-oate] | 33.9
